Laboratory results published in the supplement of paper PMC10307832.

Tests used:
Assay in all cases: relative viability (nuclei count vs DMSO), 5 days (fraction); higher = more cells survive
H3255 = test system: H3255
In short: (§1)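 Each reported value is a median over duplicate plates. It expresses relative viability: treated-well nuclei count divided by vehicle-well nuclei count. Lung cancer cell lines in 1536-well plates were dosed by pin tool a day after seeding, alone with one drug or with a fixed anchor-drug dose plus five library-drug doses (not always all listed) in √10 steps, and nuclei were counted after 5 days.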

RERF-LC-KJ = test system: RERF-LC-KJ
In short: as §1

HCC-44 = test system: HCC-44
In short: as §1

NCI-H520 = test system: NCI-H520
In short: as §1

NCI-H2085 = test system: NCI-H2085
In short: as §1

NCI-H1993 = test system: NCI-H1993
In short: as §1

PC-14 = test system: PC-14
In short: as §1

LOU-NH91 = test system: LOU-NH91
In short: as §1

201T = test system: 201T
In short: as §1

NCI-H2405 = test system: NCI-H2405
In short: as §1

NCI-H2347 = test system: NCI-H2347
In short: as §1

NCI-H647 = test system: NCI-H647
In short: as §1

NCI-H3122 = test system: NCI-H3122
In short: as §1

NCI-H2170 = test system: NCI-H2170
In short: as §1

NCI-H1563 = test system: NCI-H1563
In short: as §1

NCI-H2023 = test system: NCI-H2023
In short: as §1

NCI-H1734 = test system: NCI-H1734
In short: as §1

EPLC-272H = test system: EPLC-272H
In short: as §1

COR-L23 = test system: COR-L23
In short: as §1

NCI-H1650 = test system: NCI-H1650
In short: as §1

NCI-H1793 = test system: NCI-H1793
In short: as §1

## Oc1nc(-c2ccc(C(F)(F)F)cc2)nc2c1CSCC2 [XAV939] + CS(=O)(=O)CCNCc1ccc(-c2ccc3ncnc(Nc4ccc(OCc5cccc(F)c5)c(Cl)c4)c3c2)o1 [Lapatinib] (partner 2 µM)
H3255; first compound 0.08 µM
  relative viability: 0.19
H3255; first compound 0.253 µM
  relative viability: 0.238
H3255; first compound 0.8 µM
  relative viability: 0.233
H3255; first compound 2.53 µM
  relative viability: 0.186
RERF-LC-KJ; first compound 0.08 µM
  relative viability: 0.833
RERF-LC-KJ; first compound 0.253 µM
  relative viability: 0.702
RERF-LC-KJ; first compound 0.8 µM
  relative viability: 0.672
RERF-LC-KJ; first compound 2.53 µM
  relative viability: 0.609
HCC-44; first compound 0.08 µM
  relative viability: 1.01
HCC-44; first compound 0.253 µM
  relative viability: 0.816
HCC-44; first compound 0.8 µM
  relative viability: 0.955
HCC-44; first compound 2.53 µM
  relative viability: 0.928
NCI-H520; first compound 0.08 µM
  relative viability: 0.83
NCI-H520; first compound 0.253 µM
  relative viability: 0.78
NCI-H520; first compound 0.8 µM
  relative viability: 0.792
NCI-H520; first compound 2.53 µM
  relative viability: 0.682
NCI-H2085; first compound 0.08 µM
  relative viability: 0.692
NCI-H2085; first compound 0.253 µM
  relative viability: 0.699
NCI-H2085; first compound 0.8 µM
  relative viability: 0.743
NCI-H2085; first compound 2.53 µM
  relative viability: 0.649
NCI-H1993; first compound 0.8 µM
  relative viability: 0.866
NCI-H1993; first compound 2.53 µM
  relative viability: 0.702
PC-14; first compound 0.08 µM
  relative viability: 0.301
PC-14; first compound 0.253 µM
  relative viability: 0.307
PC-14; first compound 0.8 µM
  relative viability: 0.262
PC-14; first compound 2.53 µM
  relative viability: 0.266
LOU-NH91; first compound 0.08 µM
  relative viability: 0.73
LOU-NH91; first compound 0.253 µM
  relative viability: 0.695
LOU-NH91; first compound 0.8 µM
  relative viability: 0.696
LOU-NH91; first compound 2.53 µM
  relative viability: 0.628
201T; first compound 0.08 µM
  relative viability: 1.08
201T; first compound 0.253 µM
  relative viability: 0.866
201T; first compound 0.8 µM
  relative viability: 0.948
201T; first compound 2.53 µM
  relative viability: 0.896
NCI-H2405; first compound 0.08 µM
  relative viability: 1.25
NCI-H2405; first compound 0.253 µM
  relative viability: 1.02
NCI-H2405; first compound 0.8 µM
  relative viability: 0.972
NCI-H2405; first compound 2.53 µM
  relative viability: 1.1
NCI-H2347; first compound 0.08 µM
  relative viability: 0.944
NCI-H2347; first compound 0.253 µM
  relative viability: 0.708
NCI-H2347; first compound 0.8 µM
  relative viability: 0.805
NCI-H2347; first compound 2.53 µM
  relative viability: 0.672
NCI-H647; first compound 0.08 µM
  relative viability: 0.91
NCI-H647; first compound 0.253 µM
  relative viability: 0.854
NCI-H647; first compound 0.8 µM
  relative viability: 0.987
NCI-H647; first compound 2.53 µM
  relative viability: 0.921
NCI-H3122; first compound 0.08 µM
  relative viability: 1.01
NCI-H3122; first compound 0.253 µM
  relative viability: 0.95
NCI-H3122; first compound 0.8 µM
  relative viability: 1.01
NCI-H3122; first compound 2.53 µM
  relative viability: 1.01
NCI-H2170; first compound 0.08 µM
  relative viability: 0.259
NCI-H2170; first compound 0.253 µM
  relative viability: 0.263
NCI-H2170; first compound 0.8 µM
  relative viability: 0.267
NCI-H2170; first compound 2.53 µM
  relative viability: 0.261
NCI-H1563; first compound 0.08 µM
  relative viability: 1.15
NCI-H1563; first compound 0.253 µM
  relative viability: 0.852
NCI-H1563; first compound 0.8 µM
  relative viability: 0.809
NCI-H1563; first compound 2.53 µM
  relative viability: 0.773
NCI-H2023; first compound 0.08 µM
  relative viability: 0.737
NCI-H2023; first compound 0.253 µM
  relative viability: 0.723
NCI-H2023; first compound 0.8 µM
  relative viability: 0.674
NCI-H2023; first compound 2.53 µM
  relative viability: 0.622
NCI-H1734; first compound 0.08 µM
  relative viability: 1.34
NCI-H1734; first compound 0.253 µM
  relative viability: 0.9
NCI-H1734; first compound 0.8 µM
  relative viability: 0.814
NCI-H1734; first compound 2.53 µM
  relative viability: 0.986
EPLC-272H; first compound 0.08 µM
  relative viability: 1.06
EPLC-272H; first compound 0.253 µM
  relative viability: 0.893
EPLC-272H; first compound 0.8 µM
  relative viability: 1
EPLC-272H; first compound 2.53 µM
  relative viability: 0.864
COR-L23; first compound 0.08 µM
  relative viability: 1.04
COR-L23; first compound 0.253 µM
  relative viability: 0.924
COR-L23; first compound 0.8 µM
  relative viability: 0.932
COR-L23; first compound 2.53 µM
  relative viability: 0.89
NCI-H1650; first compound 0.08 µM
  relative viability: 0.762
NCI-H1650; first compound 0.253 µM
  relative viability: 0.726
NCI-H1650; first compound 0.8 µM
  relative viability: 0.836
NCI-H1650; first compound 2.53 µM
  relative viability: 0.454
NCI-H1793; first compound 0.08 µM
  relative viability: 0.892
NCI-H1793; first compound 0.253 µM
  relative viability: 0.602
NCI-H1793; first compound 0.8 µM
  relative viability: 0.714
NCI-H1793; first compound 2.53 µM
  relative viability: 0.877
